Measured values reported in PubChem BioAssay (NCI).
“And” between values parts separate entries of the source, which are not always exact repeats. Identical values can stand only once.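 How tested: cells in 96-well plates exposed to compound for 48 hours at five concentrations. Here, GI50 denotes the concentration required for 50% inhibition of growth. At the TGI there is no net growth.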

Assays:
Experiment in all cases: NCI anticancer screen, dose series, 48 h
A498 renal = system: A498 renal
BT-549 breast = system: BT-549 breast
HOP-62 NSCLC = system: HOP-62 NSCLC
KM12 colon = system: KM12 colon
NCI/ADR-RES ovarian = system: NCI/ADR-RES ovarian
OVCAR-4 ovarian = system: OVCAR-4 ovarian
PC-3 prostate = system: PC-3 prostate
SF-295 CNS = system: SF-295 CNS
SK-MEL-28 melanoma = system: SK-MEL-28 melanoma
UACC-62 melanoma = system: UACC-62 melanoma

| Compound | TGI (A498 renal) | TGI (BT-549 breast) | TGI (HOP-62 NSCLC) | TGI (KM12 colon) | TGI (NCI/ADR-RES ovarian) | TGI (OVCAR-4 ovarian) | TGI (PC-3 prostate) | TGI (SF-295 CNS) | TGI (SK-MEL-28 melanoma) | TGI (UACC-62 melanoma) | GI50 (A498 renal) | GI50 (BT-549 breast) | GI50 (HOP-62 NSCLC) | GI50 (KM12 colon) | GI50 (NCI/ADR-RES ovarian) | GI50 (OVCAR-4 ovarian) | GI50 (PC-3 prostate) | GI50 (SF-295 CNS) | GI50 (SK-MEL-28 melanoma) | GI50 (UACC-62 melanoma) |
| --- | --- | --- | --- | --- | --- | --- | --- | --- | --- | --- | --- | --- | --- | --- | --- | --- | --- | --- | --- | --- |
| N#CC(C(=O)O)C(c1c(Cl)cccc1Cl)C(C#N)C(=O)O (centres undefined) | > 100 µM | > 100 µM | > 100 µM | > 100 µM | > 100 µM | > 100 µM | > 100 µM | > 100 µM | > 100 µM | > 100 µM | – | – | – | – | – | – | – | – | – | – |
| CCCc1n(Cc2ccc3ccccc3n2)cc[n+]1Cc1ccc2ccccc2c1 | 6.68 µM | 1.43 µM | 5.38 µM | 2.5 µM | > 100 µM | 6.59 µM | 4.96 µM | 5.76 µM | 6.23 µM | 2.39 µM | 1.81 µM | 0.23 µM | 1.63 µM | 0.626 µM | 32.8 µM | 0.357 µM | 0.487 µM | 2.06 µM | 1.24 µM | 0.574 µM |
| Cc1ccc(-n2c3c(c4c(CN)c(O)ccc42)CCc2ccccc2C3=O)cc1 | 16.8 µM | 31.8 µM | 31.7 µM | 29.1 µM | 28.5 µM | 46 µM | 19.3 µM | 22.5 µM | 69.4 µM | 27 µM | 4.17 µM | 10.7 µM | 17.2 µM | 13.2 µM | 12.5 µM | 20.8 µM | 4.77 µM | 10.2 µM | 23.4 µM | 14 µM |
| COc1ccc(C[C@H]2NC[C@H](O)[C@H]2OC(C)=O)cc1 | 0.32 µM | 1.91 µM | 0.193 µM | 0.211 µM | 0.369 µM | 0.194 µM | 0.49 µM | 0.0641 µM | 0.351 µM | 0.225 µM | – | – | – | – | – | – | – | – | – | – |
| C=C(C)[C@@H]1CC[C@]2(CN)CC[C@]3(C)[C@H](CC[C@@H]4[C@@]5(C)CCC(N)[C@@](C)(CO)[C@@H]5CC[C@]43C)[C@@H]12 (some centres undefined) | 2.79 µM | 3.2 µM | 3.24 µM | 3.37 µM | 6.59 µM | 3.26 µM | 3.1 µM | 3.23 µM | 3.37 µM | 3.33 µM | 1.44 µM | 1.66 µM | 1.78 µM | 1.79 µM | 2.6 µM | 1.64 µM | 1.65 µM | 1.76 µM | 1.9 µM | 1.85 µM |
| C[C@@]1(O)CCC[C@H]1n1c(=O)c(C(F)F)cc2cnc(NC3CCN(S(C)(=O)=O)CC3)nc21 | – | 9.39 µM | > 100 µM | > 100 µM | > 100 µM | > 100 µM | > 100 µM | 16.2 µM | 10.9 µM | 3.31 µM | – | 1.94 µM | 2.03 µM | 1.8 µM | 12.7 µM | 1.76 µM | 2.1 µM | 1.83 µM | 2.06 µM | 1.04 µM |
| CC1(C)OC2COC(c3[nH]nc4c(=O)[nH]c(=O)[nH]c34)C2O1 (centres undefined) | > 100 µM | > 100 µM | > 100 µM | > 100 µM | > 100 µM | > 100 µM | > 100 µM | > 100 µM | > 100 µM | > 100 µM | – | – | – | – | – | – | – | – | – | – |
| CCCCCCC/C=C1\CCC(CN(C)C)C1=O (centres undefined) | 35.6 µM | 28 µM | 32.3 µM | 13.9 µM | 14.6 µM | 33.6 µM | 27.6 µM | 30.1 µM | 31 µM | 28.7 µM | – | – | – | – | – | – | – | – | – | – |
| CN(C)C1C(=O)C(C(N)=O)=C(O)C2(O)C(=O)C3=C(O)c4c(O)cccc4C(C)(O)C3CC12 (centres undefined) | 95.5 µM and > 100 µM | > 100 µM | > 100 µM | > 100 µM | > 100 µM | 75 µM and > 100 µM | > 100 µM | – | > 100 µM | > 100 µM | – | – | 37.5 µM and > 100 µM | – | – | 31 µM and > 100 µM | – | – | – | 31.7 µM and 90.9 µM |
| CN[C@H]1CC[C@]23C[C@]24CC[C@]2(C)[C@@H]([C@H](C)N(C)C)CC[C@@]2(C)[C@@H]4CC[C@H]3C1(C)C | 35.4 µM | 31.9 µM | – | 31.8 µM | 36.6 µM | 53.7 µM | 29 µM | 31.2 µM | 25.8 µM | 32.1 µM | – | – | – | – | – | – | – | – | – | – |
| COc1cc2c(cc1OC)-c1ncc3cc(OC)c(OC)c(OC)c3c1C2 | – | 7.56 µM | 86.7 µM | 95.1 µM | 89.2 µM | > 100 µM | > 100 µM | 53.8 µM | > 100 µM | 26.8 µM | – | 2.94 µM | 34.8 µM | 17.9 µM | 19.1 µM | 62.6 µM | 17.1 µM | 18.8 µM | 46.7 µM | 7.42 µM |
| COC(=O)CCCNC(=O)C(=O)c1c(O)c(O)c(C(C)C)c2cc(C)c(-c3c(C)cc4c(C(C)C)c(O)c(O)c(C(=O)C(=O)NCCCC(=O)OC)c4c3O)c(O)c12 | 14.3 µM | 7.28 µM | 4.21 µM | 4.58 µM | 16.6 µM | 27 µM | 8.65 µM | 5.22 µM | 6.92 µM | 2.07 µM | 1.36 µM | 1.19 µM | 0.942 µM | 0.164 µM | 0.834 µM | 0.23 µM | 0.258 µM | 0.25 µM | 1.1 µM | 0.657 µM |
| COc1cc(=O)oc(/C=C/C=C/C=C/C(C)=C\C2(C)OC(C)C(C)(O)C2O)c1C (centres undefined) | > 100 µM | > 100 µM | > 100 µM | > 100 µM | > 100 µM | – | > 100 µM | > 100 µM | > 100 µM | > 100 µM | – | – | – | – | – | – | – | – | – | – |
| CC(C)Cc1ccc(C(C)/C=C2\CCC(CN3CCCCC3)C2=O)cc1 (centres undefined) | 28.2 µM | 34.4 µM | 17.6 µM | 6.36 µM | – | 14.2 µM | 17.5 µM | 26.5 µM | 11 µM | 24.2 µM | – | – | – | – | – | – | – | – | – | – |
| CCN(CC)CCC(=O)N1C/C(=C/c2ccccc2)C(=O)/C(=C\c2ccccc2)C1 | 11 µM | 1.81 µM | 26.1 µM | 2.51 µM | – | 6.04 µM | 2.9 µM | 5.15 µM | 4.16 µM | 4.92 µM | – | – | – | – | – | – | – | – | – | – |
